Assay results published in PMC8482623 (Nature structural & molecular biology, 2020).

How the values were obtained:
[1] = target: T1, mBcs1 (full-length mouse Bcs1; mBcs1-His) (Mus musculus, UniProt Q9CZP5); test: blue-native PAGE band shift; assay type: binding; settings: conformational change seen as band shift
T1 sequence (Q9CZP5 1-418): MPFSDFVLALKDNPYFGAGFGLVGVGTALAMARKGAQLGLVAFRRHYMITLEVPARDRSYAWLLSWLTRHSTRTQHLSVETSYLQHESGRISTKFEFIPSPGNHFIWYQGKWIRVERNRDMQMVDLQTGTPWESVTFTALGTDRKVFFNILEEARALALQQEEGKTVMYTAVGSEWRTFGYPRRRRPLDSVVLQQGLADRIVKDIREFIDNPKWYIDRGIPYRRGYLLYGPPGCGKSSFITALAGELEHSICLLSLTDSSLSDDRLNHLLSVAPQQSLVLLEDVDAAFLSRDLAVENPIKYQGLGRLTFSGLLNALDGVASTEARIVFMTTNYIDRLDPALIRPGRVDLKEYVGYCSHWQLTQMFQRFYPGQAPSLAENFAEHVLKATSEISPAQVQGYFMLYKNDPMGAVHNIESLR

ΔNmBcs1 = ΔNmBcs1 (Mus musculus, UniProt Q9CZP5); test: X-ray crystal structure, […] Å; settings: 2 mM AMP-PNP, 20 mM MgCl2, pH 7.5; nucleotide-binding site

Which results are given for `Nc1ncnc2c1ncn2[C@@H]1O[C@H](COP(=O)(O)OP(=O)(O)NP(=O)(O)O)[C@@H](O)[C@H]1O` [AMP-PNP]?
blue-native PAGE band shift [1]: incubation of ATPγS or AMP-PNP (nonhydrolyzable ATP) caused a shift in the protein band; X-ray crystal structure, 2.2 Å (ΔNmBcs1): yielding a heptameric structure with clearly visible bound AMP-PNP
